According to PMC12775434, “Ultra-large virtual screening unveils potent agonists of the neuromodulatory orphan receptor GPR139” (Nature Communications, 2025):
“And” between values parts separate entries of the source, which are not always exact repeats. Equal values may be shown once.

Key:
Assay type in all cases: cell-based
[1] = molecular target: T1, GPR139 (Gi2 activation) (Homo sapiens, UniProt Q6DWJ6); test: BRET G protein activation (dissociation) assay, Gi2, HEK293A; conditions: for G protein activation, Gi2: individual replicates
T1 construct: expressed in transfected cells; host or cells: HEK293A (transient, Lipofectamine 2000)
T1 sequence (Q6DWJ6 1-353): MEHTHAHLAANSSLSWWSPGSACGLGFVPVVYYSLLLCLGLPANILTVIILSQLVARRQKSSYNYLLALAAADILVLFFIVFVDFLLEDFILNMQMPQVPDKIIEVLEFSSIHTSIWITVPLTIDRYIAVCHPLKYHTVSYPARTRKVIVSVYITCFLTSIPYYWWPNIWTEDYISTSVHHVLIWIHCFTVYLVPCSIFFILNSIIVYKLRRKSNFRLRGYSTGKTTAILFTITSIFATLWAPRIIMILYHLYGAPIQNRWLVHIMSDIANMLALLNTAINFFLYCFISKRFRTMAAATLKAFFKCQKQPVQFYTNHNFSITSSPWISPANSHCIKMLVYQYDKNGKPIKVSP
Method: (§1) Primary screening and pharmacological characterization of compounds were performed using a CHO-K1 cell line that stably expresses human GPR139 (GPR139-CHOk1). The GPR139-CHOk1 cell line was kindly provided by H. Lundbeck A/S, Denmark[24]. GPR139-CHOk1 cells were grown in Ham’s F-12 Kaighn’s Modification Medium (ThermoFisher #21127030) supplemented with 10% dialyzed fetal bovine serum (US origin, ThermoFisher #26400044), 100 units/mL Penicillin-Streptomycin (ThermoFisher #15140122), and 1 mg/mL Geneticin (ThermoFisher #11811031). […] M1R-CHOk1 cells were purchased from The Missouri S&T cDNA Resource Center (#CEM100TN00). M1R-CHOk1 cells were grown in Ham’s F12 Medium (ThermoFisher #21765029) supplemented with 10% fetal bovine serum (Brazilian origin, ThermoFisher #10270106), 100 units/mL Penicillin-Streptomycin, and 0.25 mg/mL Geneticin. HEK293A cells transiently transfected with GPR139 were used for additional pharmacological assessment of signaling pathways activated by GPR139. HEK239A cells were generously provided by Dr. Asuka Inoue, Tohoku University, Japan. HEK293A cells were grown in Dulbecco’s Modified Eagle Medium (ThermoFisher #31966047) supplemented with 10% dialyzed fetal bovine serum and 100 units/mL Penicillin-Streptomycin. Cell lines were maintained at 37 °C in humidified incubator equilibrated with 5% CO2.
(§2) The G protein dissociation assay developed by the lab of Kirill A. Martemyanov was used to measure the coupling of multiple G proteins by GPR139[57]. The assay was performed as described previously with minor modifications. HEK293A cells were reverse transfected 20–24 h prior to assay. 50,000 cells were plated in each well of white opaque tissue culture treated 96-well plates (PerkinElmer #6005680) previously coated with poly-D-lysine. Transfection solutions were prepared as described, and 10 µL transfection solution was mixed with 100 µL cells in each well. The cells in each well were transfected with 18.9 ng GPR139, 6.3 ng Venus 1-155 Gγ2, 6.3 ng Venus 159-239 Gβ1, 6.3 ng masGRK3ct-NanoLuc and 12.6 ng Gαi2, 12.6 ng Gαi3, 12.6 ng GαoA, 12.6 ng Gαq or 25.2 ng Gα12 using 375 nL Lipofectamine 2000 Transfection Reagent. Transfections with Gαq and Gα12 contained 6.3 ng DNA of the active subunit S1 of pertussis toxin (PTX-S1). Each transfection was normalized to 150 ng total DNA with pcDNA3.1. The BRET biosensors were a kind gift from the Martemyanov lab. On the day of the experiment the cells were washed with HEPES buffer. Test compounds were diluted in HEPES buffer from DMSO stocks (final DMSO concentration of maximally 0.3%). NanoLuc Luciferase substrate NanoGlo—furimazine (Promega #N1120) was diluted 1000-fold (final) in HEPES buffer. NanoGlo and test compounds were added, and measurements were performed after 10 s for Gi3, 15 s for Gi2 and GoA, 20 s for Gq, and 90 s for G12—the timepoint where maximal signal occurred with each G protein, ensuring proper determination of the potency for the G protein coupling. Simultaneous dual emission was measured at 535 nm and 475 nm on LUMIstar Omega Microplate Reader (BMG Labtech) at room temperature. The BRET ratio of 535 nm/475 nm (Venus/NanoLuc), reflecting the dissociation of the G protein heterotrimer, was used to determine the G protein activation. The basal BRET ratio obtained with buffer condition was subtracted from the absolute BRET ratio at a given test compound concentration, and the responses were normalized to the one obtained with 10 µM JNJ-63533054 for the activation of Gi2.
(§3) Pharmacological data and statistical analyses were performed in GraphPad Prism v9–10 (Graphpad Software Inc., San Diego, CA), which are also specifically described in the figure and table legends. […]

[2] = molecular target: T2, GPR139 (G12 activation) (Homo sapiens, UniProt Q6DWJ6); test: BRET G protein activation (dissociation) assay, G12, HEK293A; conditions: for G protein activation, G12: individual replicates
T2 construct: expressed in transfected cells; host or cells: HEK293A (transient, Lipofectamine 2000)
T2 sequence (Q6DWJ6 1-353): T1 sequence (Q6DWJ6 1-353)
Method: as §1, §2, §3

[3] = molecular target: T3, GPR139 (Gi3 activation) (Homo sapiens, UniProt Q6DWJ6); test: BRET G protein activation (dissociation) assay, Gi3, HEK293A; conditions: for G protein activation, Gi3: individual replicates
T3 construct: expressed in transfected cells; host or cells: HEK293A (transient, Lipofectamine 2000)
T3 sequence (Q6DWJ6 1-353): T1 sequence (Q6DWJ6 1-353)
Method: as §1, §2, §3

[4] = molecular target: T4, GPR139 (GoA activation) (Homo sapiens, UniProt Q6DWJ6); test: BRET G protein activation (dissociation) assay, GoA, HEK293A; conditions: for G protein activation, GoA: individual replicates
T4 construct: expressed in transfected cells; host or cells: HEK293A (transient, Lipofectamine 2000)
T4 sequence (Q6DWJ6 1-353): T1 sequence (Q6DWJ6 1-353)
Method: as §1, §2, §3

[5] = HEK293-A, normalized to JNJ-63533054 (JNJ(S))

- Emax [1, 5]: 86 ± 4%
- EC50 ([1]; Supplementary Table 6, read-out: pEC50 Gi2 (converted)): 3.98 µM
- Emax [2, 5]: 48 ± 3%
- EC50 ([2]; Supplementary Table 6, read-out: pEC50 G12 (converted)): 3.98 µM
- Emax [3, 5]: 35 ± 6%
- EC50 ([3]; Supplementary Table 6, read-out: pEC50 Gi3 (converted)): 3.98 µM
- Emax [4, 5]: 79 ± 1%
- EC50 ([4]; Supplementary Table 6): 5.01 µM
Compound: C[C@@H](NC(=O)CNC(=O)c1cccc(Cl)c1)c1ccccc1 [JNJ(R), reference compound]
- G protein activation, Gi2 ([1]; log [compound] M -4.5): 73 % of JNJ-63533054 at Gi2 and 81 % of JNJ-63533054 at Gi2 and 77 % of JNJ-63533054 at Gi2
- G protein activation, Gi2 ([1]; log [compound] M -5.0): 61 % of JNJ-63533054 at Gi2 and 62 % of JNJ-63533054 at Gi2 and 65 % of JNJ-63533054 at Gi2
- G protein activation, Gi2 ([1]; log [compound] M -5.5): 41 % of JNJ-63533054 at Gi2 and 43 % of JNJ-63533054 at Gi2 and 42 % of JNJ-63533054 at Gi2
- G protein activation, Gi2 ([1]; log [compound] M -6.0): 16 % of JNJ-63533054 at Gi2 and 23 % of JNJ-63533054 at Gi2 and 21 % of JNJ-63533054 at Gi2
- G protein activation, Gi2 ([1]; log [compound] M -6.5): 6 % of JNJ-63533054 at Gi2 and 7 % of JNJ-63533054 at Gi2 and 10 % of JNJ-63533054 at Gi2
- G protein activation, Gi2 ([1]; log [compound] M -7.0): -0.885 % of JNJ-63533054 at Gi2 and 0.48 % of JNJ-63533054 at Gi2 and 10 % of JNJ-63533054 at Gi2
- G protein activation, Gi2 ([1]; log [compound] M -7.5): 0.698 % of JNJ-63533054 at Gi2 and -1 % of JNJ-63533054 at Gi2 and 11 % of JNJ-63533054 at Gi2
- G protein activation, Gi2 ([1]; log [compound] M -8.0): -0.866 % of JNJ-63533054 at Gi2 and -1.55 % of JNJ-63533054 at Gi2 and 11 % of JNJ-63533054 at Gi2
- G protein activation, G12 ([2]; log [compound] M -4.5): 45 % of JNJ-63533054 at Gi2 and 42 % of JNJ-63533054 at Gi2 and 41 % of JNJ-63533054 at Gi2
- G protein activation, G12 ([2]; log [compound] M -5.0): 37 % of JNJ-63533054 at Gi2 and 34 % of JNJ-63533054 at Gi2 and 33 % of JNJ-63533054 at Gi2
- G protein activation, G12 ([2]; log [compound] M -5.5): 24 % of JNJ-63533054 at Gi2 (2×) and 19 % of JNJ-63533054 at Gi2
- G protein activation, G12 ([2]; log [compound] M -6.0): 13 % of JNJ-63533054 at Gi2 and 11 % of JNJ-63533054 at Gi2 and 9 % of JNJ-63533054 at Gi2
- G protein activation, G12 ([2]; log [compound] M -6.5): 7 % of JNJ-63533054 at Gi2 and 5 % of JNJ-63533054 at Gi2 and 2.85 % of JNJ-63533054 at Gi2
- G protein activation, G12 ([2]; log [compound] M -7.0): 1.33 % of JNJ-63533054 at Gi2 and 4 % of JNJ-63533054 at Gi2 and 0.154 % of JNJ-63533054 at Gi2
- G protein activation, G12 ([2]; log [compound] M -7.5): 0.474 % of JNJ-63533054 at Gi2 and 6 % of JNJ-63533054 at Gi2 and 1.7 % of JNJ-63533054 at Gi2
- G protein activation, G12 ([2]; log [compound] M -8.0): -0.892 % of JNJ-63533054 at Gi2 and 6 % of JNJ-63533054 at Gi2 and 2.38 % of JNJ-63533054 at Gi2
- G protein activation, Gi3 ([3]; log [compound] M -4.5): 36 % of JNJ-63533054 at Gi2 and 21 % of JNJ-63533054 at Gi2 and 35 % of JNJ-63533054 at Gi2
- G protein activation, Gi3 ([3]; log [compound] M -5.0): 29 % of JNJ-63533054 at Gi2 and 16 % of JNJ-63533054 at Gi2 and 28 % of JNJ-63533054 at Gi2
- G protein activation, Gi3 ([3]; log [compound] M -5.5): 20 % of JNJ-63533054 at Gi2 and 7 % of JNJ-63533054 at Gi2 and 23 % of JNJ-63533054 at Gi2
- G protein activation, Gi3 ([3]; log [compound] M -6.0): 11 % of JNJ-63533054 at Gi2 (2×) and 4 % of JNJ-63533054 at Gi2
- G protein activation, Gi3 ([3]; log [compound] M -6.5): 5.48 % of JNJ-63533054 at Gi2 and -1.21 % of JNJ-63533054 at Gi2 and 3.19 % of JNJ-63533054 at Gi2
- G protein activation, Gi3 ([3]; log [compound] M -7.0): 3.32 % of JNJ-63533054 at Gi2 and -6 % of JNJ-63533054 at Gi2 and 6 % of JNJ-63533054 at Gi2
- G protein activation, Gi3 ([3]; log [compound] M -7.5): 3 % of JNJ-63533054 at Gi2 and -5 % of JNJ-63533054 at Gi2 and 7.51 % of JNJ-63533054 at Gi2
- G protein activation, Gi3 ([3]; log [compound] M -8.0): -1 % of JNJ-63533054 at Gi2 and -3.25 % of JNJ-63533054 at Gi2 and 5 % of JNJ-63533054 at Gi2
- G protein activation, GoA ([4]; log [compound] M -4.5): 73 % of JNJ-63533054 at Gi2 and 70 % of JNJ-63533054 at Gi2 and 62 % of JNJ-63533054 at Gi2
- G protein activation, GoA ([4]; log [compound] M -5.0): 58 % of JNJ-63533054 at Gi2 and 53 % of JNJ-63533054 at Gi2 and 47 % of JNJ-63533054 at Gi2
- G protein activation, GoA ([4]; log [compound] M -5.5): 37 % of JNJ-63533054 at Gi2 and 33 % of JNJ-63533054 at Gi2 and 28 % of JNJ-63533054 at Gi2
- G protein activation, GoA ([4]; log [compound] M -6.0): 16 % of JNJ-63533054 at Gi2 and 13 % of JNJ-63533054 at Gi2 and 14 % of JNJ-63533054 at Gi2
- G protein activation, GoA ([4]; log [compound] M -6.5): 5.7 % of JNJ-63533054 at Gi2 and 1.59 % of JNJ-63533054 at Gi2 and 5.63 % of JNJ-63533054 at Gi2
- G protein activation, GoA ([4]; log [compound] M -7.0): -0.263 % of JNJ-63533054 at Gi2 and -1.74 % of JNJ-63533054 at Gi2 and 2.49 % of JNJ-63533054 at Gi2
- G protein activation, GoA ([4]; log [compound] M -7.5): -1.44 % of JNJ-63533054 at Gi2 and 0.514 % of JNJ-63533054 at Gi2 and 0.72 % of JNJ-63533054 at Gi2
- G protein activation, GoA ([4]; log [compound] M -8.0): -1.46 % of JNJ-63533054 at Gi2 and -2.26 % of JNJ-63533054 at Gi2 and 3.8 % of JNJ-63533054 at Gi2
